How the values were obtained:
[1] = biological target: Protein farnesyltransferase (Homo sapiens, UniProt P49354+P49356); experiment: Inhibition of rate of incorporation of [3H]FPP into recombinant Ras-CVIM by human farnesyltransferase.; type: protein-complex assay
[2] = biological target: Geranylgeranyl transferase type I (Homo sapiens, UniProt P49354+P53609); experiment: Inhibition of rate of incorporation of [3H]GGPP into a biotinylated peptide corresponding to C-terminus of human Ki-Ras by human geranylgeranyl-transferase type I.; type: protein-complex assay
[3] = biological target: Protein farnesyltransferase (Rattus norvegicus, UniProt Q02293+Q04631); experiment: Displacement of radiolabeled FTI from Farnesyltransferase in cultured v-Ha-ras-transformed RAT1 cells; type: functional, cell-based

Row | IC50 [1] | IC50 [2] | IC50 [3] | SMILES
1 | 27 nM | 2600 nM | – | C#Cc1cccc(Oc2cc(Cn3ccnc3)ccc2C#N)c1
2 | 41 nM | 1100 nM | – | N#Cc1ccc(Cn2ccnc2)cc1Oc1ccccc1Cl
3 | 5400 nM | 8800 nM | – | N#Cc1ccc(Cn2ccnc2)cc1S(=O)(=O)c1ccc(Cl)cc1Cl
4 | 8 nM | 280 nM | 260 nM | N#Cc1ccc(Cn2ccnc2)cc1Oc1ccc(Cl)cc1Cl
5 | 475 nM | – | – | Cc1ncn(Cc2ccc(C#N)cc2)c1CN1CC(=O)N(c2cccc(Cl)c2)CC1CCS(C)(=O)=O (stereo not drawn)
6 | 13 nM | 840 nM | – | N#Cc1ccc(Cn2ccnc2)cc1Oc1cccc(C(=O)c2ccccc2)c1
7 | 860 nM | 7000 nM | – | N#Cc1ccc(Cn2ccnc2)cc1OCCc1ccccc1
8 | 86 nM | 12000 nM | – | N#Cc1ccc(Cn2ccnc2)cc1OCCc1ccc(-c2ccccc2)cc1
9 | 200 nM | 3100 nM | – | N#Cc1ccc(Cn2ccnc2)cc1OCCCc1ccccc1
10 | < 1 nM | 23 nM | 96 nM | N#Cc1ccc(Cn2ccnc2)cc1Sc1ccc(Cl)cc1Cl
11 | 27 nM | 520 nM | – | CC(C)(C)c1cccc(Oc2cc(Cn3ccnc3)ccc2C#N)c1
12 | 110 nM | 740 nM | – | N#Cc1ccc(Cn2ccnc2)cc1Oc1ccccc1-c1ccccc1
13 | 440 nM | 380 nM | – | N#Cc1ccc(Cn2ccnc2)cc1OCCCCc1ccccc1
14 | 9.6 nM | 520 nM | – | N#Cc1ccc(Cn2ccnc2)cc1Oc1cccc(-c2ccccc2)c1
15 | 40 nM | 3500 nM | – | COc1cccc(Oc2cc(Cn3ccnc3)ccc2C#N)c1
16 | 53 nM | 3200 nM | – | N#Cc1ccc(Cn2ccnc2)cc1Oc1cccc(Cl)c1
17 | 100 nM | 18000 nM | – | COc1ccc(OC)c(Oc2cc(Cn3ccnc3)ccc2C#N)c1
18 | 1.1 nM | 520 nM | – | N#Cc1ccc(Cn2ccnc2)cc1Oc1ccc2ccccc2c1
19 | 130 nM | 16000 nM | – | N#Cc1cccc(Oc2cc(Cn3ccnc3)ccc2C#N)c1

Row | IC50 [1] | IC50 [2] | IC50 [3] | SMILES
20 | 38 nM | 2900 nM | – | N#Cc1ccc(Cn2ccnc2)cc1Oc1cccc(Br)c1
21 | 1 nM | 15000 nM | 14 nM | COc1cccc(Oc2cc(Cn3ccnc3)ccc2C#N)c1OC
22 | 230 nM | 600 nM | – | N#Cc1ccc(Cn2ccnc2)cc1Oc1cccc(Cc2ccccc2)c1
23 | 45 nM | 6100 nM | – | CC(=O)c1cccc(Oc2cc(Cn3ccnc3)ccc2C#N)c1
24 | 38 nM | 3300 nM | – | N#Cc1ccc(Cn2ccnc2)cc1Oc1cccc(C(=O)Nc2ccccc2)c1
25 | 28 nM | 1200 nM | – | N#Cc1ccc(Cn2ccnc2)cc1Oc1ccc(Cl)c(Cl)c1
26 | 38 nM | 920 nM | – | N#Cc1ccc(Cn2ccnc2)cc1Oc1ccc(Cl)cc1
27 | 340 nM | 28000 nM | – | COc1ccccc1Oc1cc(Cn2ccnc2)ccc1C#N
28 | 230 nM | 3700 nM | – | N#Cc1ccc(Cn2ccnc2)cc1Oc1ccccc1
29 | 17 nM | 630 nM | – | N#Cc1ccc(Cn2ccnc2)cc1Oc1cccc(Nc2ccccc2)c1
30 | 150 nM | 3200 nM | – | N#Cc1ccc(Cn2ccnc2)cc1Oc1cccc2ccccc12
31 | 290 nM | 3500 nM | – | COc1ccc(Oc2cc(Cn3ccnc3)ccc2C#N)cc1
32 | – | 1300 nM | – | N#Cc1ccc(Cn2ccnc2)cc1Oc1ccc(-c2ccccc2)cc1
33 | 390 nM | 2000 nM | – | N#Cc1ccc(Cn2ccnc2)cc1[S+]([O-])c1ccc(Cl)cc1Cl (stereo not drawn)
34 | 180 nM | 4400 nM | – | N#Cc1ccc(Cn2ccnc2)cc1Oc1cccc(F)c1
35 | 14 nM | 280 nM | – | N#Cc1ccc(Cn2ccnc2)cc1Oc1cccc(Oc2ccccc2)c1
36 | 2.9 nM | 7.1 nM | 4.9 nM | CCC1(c2cccc(Oc3cc(Cn4ccnc4)ccc3C#N)c2)CCCCN(C)C1=O (stereo not drawn)
37 | 1500 nM | 6800 nM | – | N#Cc1ccc(Cn2ccnc2)cc1OCc1ccccc1
38 | 38 nM | 2000 nM | – | N#Cc1ccc(Cn2ccnc2)cc1Oc1cccc(NC(=O)c2ccccc2)c1
